Blank lines part the entries; values can stand above or below the compound they belong to.
Experiments:
[1] = mouse, in vivo, ip, 200 mg/kg
Procedure: (§7) After the grouping, the mice in the normal group and the model group were intragastrically administrated with 10 ml/kg of an icaritin solvent which was prepared by adding 12 g of hypromellose E5 and 0.1 g of sodium lauryl sulfate into 1 L of water. […] One hour after the last pre-administration, the mice in the model group and each administration group were injected with 150 U/kg of a heparin sodium injection through a tail vein to establish a model, and the mice in the normal group were injected with 10 ml/kg of a sodium chloride injection through a tail vein.
(§8) After the bleeding time was detected, the mice were anesthetized with sodium pentobarbital, blood was collected from an abdominal cardinal vein, and indicators of blood routine examination and four coagulation indicators (prothrombin time, thromboplastin time, thrombin time, and fibrinogen) were detected.

[2] = test system: prolonged bleeding time caused by heparin sodium; assay: Tail-cut bleeding time in mice, prolonged by heparin sodium; format: in vivo, ICR mice; settings: group P, 200 mg/kg i.p. once a day 5 days; heparin sodium 150 U/kg i.v.
Excerpt: 72 ICR mice aged 5-6 weeks, weighing 19-21 g, and half male and half female were selected. The mice were quarantined for 7 days after entering a laboratory and healthy mice were selected as test animals. The mice were weighed on first and last days of quarantine. According to the body weight on the last day of the quarantine, the male and female animals were divided into six groups by a simplified random method, namely, a normal group (C), a model group (V), low-, medium- and high-dose icaritin groups (2, 6, and 18 mg/kg, L, M, H) and a positive control drug group (200 mg/kg of etamsylate, P).
(§1) After 15 min of the modeling, the tails of the mice were cut and bleeding time of each mouse was measured.

[3] = mouse, in vivo, ip, 200 mg/kg; remark: listed apart in the source
Procedure: as §7, §8

[4] = test system: prolonged bleeding time caused by aspirin; assay: Tail-cut bleeding time in mice, prolonged by aspirin; format: in vivo, ICR mice; settings: group P, 200 mg/kg i.p. once a day 5 days; aspirin 20 mg/kg i.g.
Procedure: According to the body weight on the last day of the quarantine, the male and female animals were divided into six groups by a simplified random method, namely, a normal group (C), a model group (V), icaritin low-, medium- and high-dose groups (2, 6, and 18 mg/kg, L, M, H) and a positive control drug group (200 mg/kg of etamsylate, P).
as §1

[5] = test system: hemorrhagic transformation model induced by clopidogrel combined with cerebral ischemia-reperfusion; assay: Hemorrhagic transformation after cerebral ischemia-reperfusion (MCAO) caused by clopidogrel, bleeding rate; format: in vivo, ICR mice; settings: 12 mg/kg i.g. Day 1-3 with clopidogrel 15 mg/kg; 24 h after MCAO; of 8 (icaritin) or 7 (icariin) animals
Procedure: (§2) 5-week-old ICR male mice were fed to 6-week-old and divided into a control group, a model group, an icaritin-3 mg/kg group, an icaritin-6 mg/kg group, an icaritin-12 mg/kg group, and an icariin-12 mg/kg group according to body weight. From day 1 to day 3 after the grouping, the mice in each icaritin group were separately intragastrically administrated with 3, 6, and 12 mg/kg of icaritin and the mice in the icariin group was intragastrically administrated with 12 mg/kg of icariin once a day, and the mice in other groups were intragastrically administrated with a corresponding vehicle; and except the control group, the mice in other groups were intragastrically administrated with aspirin (100 mg/kg) or clopidogrel (15 mg/kg) once a day at a volume of 10 mL/kg.
(§3) On day 3, 10 min after the administration, the mice were anesthetized by intraperitoneal injection of 70 mg/kg of pentobarbital sodium and subjected to a cerebral ischemia-reperfusion (middle cerebral artery occlusion, MCAO) surgery with ischemia for 1 h and reperfusion for 23 h.
(§4) 24 h after the surgery was an end point of the experiment.
(§5) Bleeding rate: the mice were anesthetized by intraperitoneal injection of 70 mg/kg of pentobarbital sodium, a brain tissue was taken out, cerebral hemorrhage was recorded and a bleeding rate of the mice in each group was calculated. Cerebral hemorrhage rate %=number of animals with cerebral hemorrhage/number of surviving animals in each group×100.

[6] = test system: hemorrhagic transformation model induced by aspirin combined with cerebral ischemia-reperfusion; assay: Hemorrhagic transformation after cerebral ischemia-reperfusion (MCAO) caused by aspirin, bleeding rate; format: in vivo, ICR mice; settings: 12 mg/kg i.g. Day 1-3 with aspirin 100 mg/kg; 24 h after MCAO; of 9 (icaritin) or 8 (icariin) animals
Procedure: as §2, §3, §4, §5

gastric injury = test system: gastric injury; design: species or system SD rats; settings: rat, in vivo
Procedure: (§6) An animal model of thromboembolic cerebral ischemia was prepared by blocking a middle cerebral artery with an autologous thrombus combined with a suture occlusion method, and a catheter was indwelled.
The left lung and gastric antrum were excised, fixed with 100 g/L of a neutral formaldehyde solution, and dehydrated conventionally to be transparent, the dehydrated tissue was dipped with wax and embedded, the embedded tissue was sectioned and stained, and pathological changes were observed under a light microscope. A damage degree was graded according to a degree of tissue congestion, edema and cell degeneration from mild to severe: grade I: 0%-25%, grade II: 26%-50%, grade III: 51%-75%, and grade IV: >75% (bleeding was observed under the microscope).

[7] = test system: gastric bleeding caused by thrombolytic drug; design: species or system SD rats; settings: rat, in vivo
Procedure: as §6
24 h after the arterial administration, the rats in each group were anesthetized and dissected. The number of bleeding cases was observed under naked eyes and a light microscope, and a ratio of the number of bleeding cases to the total number was calculated.

cerebral infarction = assay: Same rt-PA thrombolysis model, cerebral infarction volume (rate); format: in vivo, rats; settings: rt-PA 5 mg/kg alone, compared with the model group
Procedure: An incision about 3.0-cm-long was taken from the skin in the middle of the neck, the muscle and the subcutaneous tissue were bluntly separated, the right bilateral common carotid arteries, external carotid arteries, and internal carotid arteries were separated to avoid damage to the vagus nerve, the internal carotid arteries were separated to the skull base, and the external carotid arteries were ligated at the bifurcation of the bilateral common carotid arteries. 0.1 ml of arterial blood from the femoral artery of the rat was taken using a 1-ml syringe, 4 U of thrombin was added, the materials were uniformly mixed and stood for 8-10 min, when the blood was coagulated, and the coagulated blood was injected into a 24 G venous indwelling needle to prepare a thrombus about 1-cm-long followed by a syringe containing 1-2 ml of normal saline. […] Infarct volume=non-ischemic side hemisphere volume-ischemic side hemisphere non-infarct area volume, and an infarct volume ratio was expressed as the percentage (%) of the infarct volume to the non-ischemic side hemisphere volume.

myocardial infarction [8] = assay: Isoproterenol myocardial infarction rats, electrocardiogram; format: in vivo, Wistar male rats; settings: rt-PA 5 mg/kg femoral vein, compared with the model group
Procedure: 60 Wistar male rats (SPF grade), weighing 220-260 g, were randomly divided into a myocardial infarction modeling group and a control group according to a random number table, with 12 rats in the control group and 48 rats in the model group. The rats were conventionally fed in separate cages with 4 rats per cage. After a normal electrocardiogram was traced, the rats in the myocardial infarction modeling group were subcutaneously injected with 150 mg·kg^−1·d^−1 of isoproterenol (ISO) in a volume of 0.2 mL/100 g every other 24 h for 2 consecutive days. The rats in the control group were subcutaneously injected with a same amount (0.2 mL/100 g) of normal saline according the same method for 2 consecutive days. The electrocardiogram was monitored 24 h after the second subcutaneous injection of the isoproterenol. […] The ST segment elevation of greater than 0.2 mV in lead II or the formation of Q wave became the standard for myocardial infarction. […]
The rats were anesthetized by inhalation of ether. […] The electrocardiogram of the rat was monitored using the limb leads according to right upper limb-red, left upper limb-yellow, left lower limb-green, and right lower limb-black, an electrocardiograph was turned on at a paper speed of 50 mm/s and a voltage of 1 mv, and the animals were returned to the cages after the electrocardiogram.

[9] = test system: hemorrhagic transformation induced by thrombolytic drug; assay: Rat middle cerebral artery autologous thrombosis with rt-PA thrombolysis, cerebral hemorrhage volume; format: in vivo
Procedure: A rat model of middle cerebral artery autologous thrombosis was prepared according to the following method: rats were anesthetized by intraperitoneal injection of 10% […] at 350 mg/kg body weight and fixed on an operating table in a supine position, skin of the rats was routinely disinfected according to aseptic operation procedures, and draping was performed. An incision about 3.0-cm-long was taken from the skin in the middle of the neck, the muscle and the subcutaneous tissue were bluntly separated, the right bilateral common carotid arteries, external carotid arteries, and internal carotid arteries were separated to avoid damage to the vagus nerve, the internal carotid arteries were separated to the skull base, and the external carotid arteries were ligated at the bifurcation of the bilateral common carotid arteries. 0.1 ml of arterial blood from the femoral artery of the rat was taken using a 1-ml syringe, 4 U of thrombin was added, the materials were uniformly mixed and stood for 8-10 min, when the blood was coagulated, and the coagulated blood was injected into a 24 G venous indwelling needle to prepare a thrombus about 1-cm-long followed by a syringe containing 1-2 ml of normal saline. […]
Another 4 healthy rats were taken, sacrificed by excessive anesthesia, and subjected to cardiac perfusion. […] cerebral hemisphere tissues were taken, 0, 0.5, 1, 2, 4, 8, 16, 32, and 50 μL of arterial blood of male SD rats was successively added to each hemisphere tissue, PBS at a pH of 7.4 was added to a total volume of 3 ml, the tissue was homogenized for 30 s and ultrasonically lysed, and centrifugation was performed at 13,000 r/min and 4° C. for 30 min 0.8 mL of Drabkin's reagent was mixed with 0.2 mL of a supernatant of each sample, an obtained mixture was placed in a dark place at a room temperature for 10 min, and an absorbance at a wavelength of 540 nm (absorbance of sample not containing blood was set to 0) was measured. The absorbance was set as a Y-axis and the blood volume in each sample was set as an X-axis to draw a standard curve. […]

myocardial infarction [10] = assay: Isoproterenol myocardial infarction rats, heart weight / body weight; format: in vivo, Wistar male rats; settings: rt-PA 5 mg/kg femoral vein
Procedure: 60 Wistar male rats (SPF grade), weighing 220-260 g, were randomly divided into a myocardial infarction modeling group and a control group according to a random number table, with 12 rats in the control group and 48 rats in the model group. The rats were conventionally fed in separate cages with 4 rats per cage. After a normal electrocardiogram was traced, the rats in the myocardial infarction modeling group were subcutaneously injected with 150 mg·kg^−1·d^−1 of isoproterenol (ISO) in a volume of 0.2 mL/100 g every other 24 h for 2 consecutive days. The rats in the control group were subcutaneously injected with a same amount (0.2 mL/100 g) of normal saline according the same method for 2 consecutive days. The electrocardiogram was monitored 24 h after the second subcutaneous injection of the isoproterenol. […] The ST segment elevation of greater than 0.2 mV in lead II or the formation of Q wave became the standard for myocardial infarction.
A total of 36 modeled rats were selected from the modeling group and randomly divided into a model group, a thrombolysis group and a thrombolytic drug+icaritin group according to the random number table. […]

Number of erythrocytes [1]: 6.998 ± 0.871 10^12/L
Number of leukocytes [1]: 1.903 ± 0.221 10^9/L
Number of platelets [1]: 1097 ± 114 10^9/L
Fibrinogen [3]: 1.86 ± 0.40 g/L
Prothrombin time [3]: 10.03 ± 1.24 s
Thrombin time [3]: 24.34 ± 1.37 s
Thromboplastin time [3]: 22.78 ± 2.34 s
Compound: O=S(=O)(O)c1cc(O)ccc1O [Etamsylate, reference compound]
Bleeding time [2]: 21.4 ± 6.7^$ min
Bleeding time [4]: 26.4 ± 6.4^$ min

Compound: COc1ccc(-c2oc3c(CC=C(C)C)c(O[C@@H]4O[C@H](CO)[C@@H](O)[C@H](O)[C@H]4O)cc(O)c3c(=O)c2O[C@@H]2O[C@@H](C)[C@H](O)[C@@H](O)[C@H]2O)cc1 [Icariin, reference compound]
Number of animals with cerebral hemorrhage [5]: 5
Number of animals with cerebral hemorrhage [6]: 6

Compound: Urokinase
Incidence of gastric injury (gastric injury): 100 ^$ $ %
Number of animals, gastric damage grade I (gastric injury): 1
Number of animals, gastric damage grade II (gastric injury): 2
Number of animals, gastric damage grade III (gastric injury): 2
Number of animals, gastric damage grade IV (gastric injury): 11
Total number of animals with gastric injury (gastric injury): 16
Bleeding rate [7]: 68.8^$ $ %
Number of bleeding animals [7]: 11

Compound: rt-PA: alteplase (rt-PA), thrombolytic drug, 5 mg/kg via the femoral vein
Pale white area of the infarcted area (cerebral infarction): significantly decreased
Pathological Q waves in electrocardiogram (myocardial infarction [8]): disappeared
Cerebral hemorrhage volume ([9]; rt-PA 5 mg/kg femoral vein 3 h after modeling, 3 h after thrombolysis): 6.43 ± 0.89
Cerebral hemorrhage volume ([9]; rt-PA 5 mg/kg femoral vein, 6 h after thrombolysis): 9.78 ± 1.01
Cerebral hemorrhage volume ([9]; rt-PA 5 mg/kg femoral vein, 24 h after thrombolysis): 15.32 ± 2.01
Whole heart weight (myocardial infarction [10]): 702.3 ± 10.8 mg
Heart weight/body weight (myocardial infarction [10]; model group 4.0, control 2.6): 2.8^$ $ mg/g

Reference: patent publication US12558343B2, “Medical use of icaritin” (Lunan Pharmaceutical Group Corporation, priority 2020, dated 2026)
